IC50 and inhibition data for 26 compounds are collected here from ChEMBL document CHEMBL4177617 (Bioorg Med Chem Lett, 2017).

Molecules are shown by their SMILES.

Tested on in one experiment: not listed separately
Kind of experiment: Inhibition of protease activity of Clostridium botulinum BoNT/A light chain using 66-mer SNAP-25 as substrate by LC-MS analysis.
Settings: not given; call rule not given here
The term IC50 denotes the concentration at which inhibition is half-maximal. `CC(=O)Oc1ccc(/C=C/C(=O)Oc2ccccc2OC(=O)/C=C/c2ccc(OC(C)=O)c(OC(C)=O)c2)cc1OC(C)=O`: the 50% inhibitory concentration (IC50) entry is listed as “Not Active”.

Consider `O=C(/C=C/c1ccc([N+](=O)[O-])cc1)Oc1ccccc1OC(=O)/C=C/c1ccc([N+](=O)[O-])cc1`, for which the IC50 result was “Not Active”.

As to `NCCc1ccc(OC(=O)c2ccc(O)c(O)c2)c(OC(=O)c2ccc(O)c(O)c2)c1`, the IC50 entry is listed as “Not Active”.

Take `O=Cc1ccc(/C=C/C(=O)Oc2ccccc2OC(=O)/C=C/c2ccc(C=O)cc2)cc1`: the IC50 entry was “Not Active”.

Take `O=C(/C=C/c1ccc(CO)cc1)Oc1ccccc1OC(=O)/C=C/c1ccc(CO)cc1`: the concentration for half-maximal inhibition (IC50) result is given as “Not Active”.

Staying with this experiment, now noted: read-out: IC50.
Regarding `O=C(/C=C/c1ccc(O)c(O)c1)OCC#CCOC(=O)/C=C/c1ccc(O)c(O)c1`, the IC50 worked out at 410 nM.

For the compound `O=C(/C=C/c1cccc(O)c1)Oc1ccccc1OC(=O)/C=C/c1cccc(O)c1`, the IC50 is greater than 20000 nM.

Take `O=C(/C=C/c1ccc(O)c(O)c1)OC[C@H]1CC[C@H]1COC(=O)/C=C/c1ccc(O)c(O)c1`: the 50% inhibitory concentration (IC50) was determined as 1700 nM.

In the case of `O=C(/C=C/c1ccc(O)c(O)c1)O[C@@H]1CCCCC[C@H]1OC(=O)/C=C/c1ccc(O)c(O)c1`, the IC50 was 3200 nM.

Take `O=C(Oc1ccccc1OC(=O)c1ccc(O)cc1)c1ccc(O)cc1`: the IC50 came to 9500 nM.

With `O=C(/C=C/c1ccc(O)c(O)c1)Oc1cccc2cccc(OC(=O)/C=C/c3ccc(O)c(O)c3)c12`, the concentration for half-maximal inhibition (IC50) was determined as 50 nM.

On to `O=C(/C=C/c1ccc(O)c(O)c1)Oc1cccc(OC(=O)/C=C/c2ccc(O)c(O)c2)c1`, for which the IC50 turned out to be 560 nM.

On to `O=C(/C=C/c1ccc(O)c(O)c1)OCc1ccccc1COC(=O)/C=C/c1ccc(O)c(O)c1`, for which the 50% inhibitory concentration (IC50) was 1100 nM.

On to `O=C(/C=C/c1ccc(O)c(O)c1)OCc1ccccc1OC(=O)/C=C/c1ccc(O)c(O)c1`, for which the IC50 came to 140 nM.

On to `O=C(/C=C/c1ccc(O)c(O)c1)O[C@H]1CCCC[C@H]1OC(=O)/C=C/c1ccc(O)c(O)c1`, for which the 50% inhibitory concentration (IC50) was determined as 3200 nM.

In the case of `O=C(/C=C/c1ccc(O)c(O)c1)Oc1ccccc1OC(=O)/C=C/c1ccc(O)c(O)c1`, the IC50 came to 490 nM.

Consider `CC(C)OC(=O)[C@H](OC(=O)/C=C/c1ccc(O)c(O)c1)[C@@H](OC(=O)/C=C/c1ccc(O)c(O)c1)C(=O)OC(C)C`, for which the IC50 stood at 2700 nM.

Take `O=C(/C=C/c1ccc(O)c(O)c1)OC/C=C\COC(=O)/C=C/c1ccc(O)c(O)c1`: the 50% inhibitory concentration (IC50) came out at 450 nM.

As to `O=C(/C=C/c1ccc(O)c(O)c1)O[C@H]1CCC[C@H]1OC(=O)/C=C/c1ccc(O)c(O)c1`, the half-maximal inhibitory concentration (IC50) worked out at 2400 nM.

For `CC(C)(C)C(COC(=O)/C=C/c1ccc(O)c(O)c1)COC(=O)/C=C/c1ccc(O)c(O)c1`, the concentration for half-maximal inhibition (IC50) came to 130 nM.

On to `O=C(/C=C/c1ccc(O)c(O)c1)Oc1cc2c(cc1OC(=O)/C=C/c1ccc(O)c(O)c1)OCCO2`, for which the IC50 turned out to be 300 nM.

In the case of `O=C(/C=C/c1ccc(O)c(O)c1)OC[C@@H]1C[C@@H]1COC(=O)/C=C/c1ccc(O)c(O)c1`, the half-maximal inhibitory concentration (IC50) was found to be 130 nM.

Turning to `COC(=O)c1ccc(OC(=O)/C=C/c2ccc(O)c(O)c2)c(OC(=O)/C=C/c2ccc(O)c(O)c2)c1`, the IC50 came to 390 nM.

With `O=C(Oc1ccccc1OC(=O)c1ccc(O)c(O)c1)c1ccc(O)c(O)c1`, the half-inhibitory concentration (IC50) is greater than 20000 nM.

Consider `O=C(/C=C/c1ccc(O)c(O)c1)Nc1ccccc1NC(=O)/C=C/c1ccc(O)c(O)c1`, for which the IC50 was found to be 3300 nM.

The test system of the next experiment is Clostridium botulinum. Kind of experiment: Inhibition of protease activity of Clostridium botulinum BoNT/A light chain using 66-mer SNAP-25 as substrate by LC-MS analysis relative to control. Particulars: concentration not given here.
The term inhibition denotes the percentage by which the read-out fell short of the control. As for `O=C(/C=C/c1ccc(O)c(O)c1)O[C@@H](C(=O)O)[C@@H](OC(=O)/C=C/c1ccc(O)c(O)c1)C(=O)O`, the inhibition was 64%.

The compound `O=C(/C=C/c1ccc(O)c(O)c1)Oc1ccccc1OC(=O)/C=C/c1ccc(O)c(O)c1` had an inhibition of 96%.

The compound `O=C(/C=C/c1ccc(O)c(O)c1)OC[C@@H]1C[C@@H]1COC(=O)/C=C/c1ccc(O)c(O)c1` displayed an inhibition of 75%.
